Experimental data taken from US8710061B2, “Compounds for the reduction of β-amyloid production” (Bristol-Myers Squibb Company, priority 2011, dated 2014).

test system: Aβ42 production in H4 APP751 SWE clone 8.20 cells; assay: Cellular assay for inhibition of Aβ1-42 production; format: cell-based; details: 19 h incubation, read-out: Activity Rating (Aβ42 cellular IC50), class symbol
Method: Cellular Assays for Inhibition of Aβ1-40 and Aβ1-42 Production
H4 cells stably transfected with APP751 containing the Swedish mutation (H4 APP751 SWE clone 8.20, developed at BMS) were maintained in log phase through twice weekly passage at a 1:20 split. […] Following incubation for 19 h in 5% CO2 at 37° C., plates were briefly centrifuged (1000 rpm, 5 min). A 10 μl aliquot from each well was transferred to a second assay plate (Costar 3709) for Aβ40 measurements. Antibody cocktails were freshly prepared by dilution into 40 mM Tris-HCl (pH 7.4) with 0.2% BSA and added to assay plates. For Aβ42 measurements, antibodies specific for the Aβ42 neoepitope (565, developed at BMS; conjugated to the Wallac reagent (Perkin Elmer)) and the N-terminal sequence of Aβ peptide (26D6, developed at SIBIA; conjugated to […] (Perkin Elmer)) were mixed and 20 μl of the mixture was added to each well of the incubated cell plate yielding a final concentration of 0.8 ng/well 565 and 75 ng/well 26D6. For the Aβ40 measurements, antibodies specific for the Aβ40 neoepitope (TSD, developed at BMS; conjugated to the Wallac reagent (Perkin Elmer)) and 26D6 as described above were mixed and 20 μl of the mixture was added to the 10 μl aliquots which had been removed previously from the cell plate yielding a final concentration of 1.6 ng/well TSD and 17.5 ng/well 26D6. Assay plates containing antibodies were sealed with aluminum foil and incubated overnight at 4° C. Signal was determined using a Viewlux counter (Perkin Elmer) and IC50 values determined using curve fitting in CurveMaster (Excel Fit based).

Compound | IC50 [nM]
CNc1nc(Nc2ccc(C#N)c(OC)c2)nc2c1CC[C@@H]2c1ccccc1OC [Example 1B, (R)-2-methoxy-4-(7-(2-methoxyphenyl)-4-(methylamino)-6,7-dihydro-5H-cyclopenta[d]pyrimidin-2-ylamino)benzonitrile] | 10 to 100
CNc1nc(Nc2ccc(C#N)c(OC)c2)nc2c1CC[C@]2(C)c1ccc(F)cc1 [Example 2B, (R)-4-(7-(4-fluorophenyl)-7-methyl-4-(methylamino)-6,7-dihydro-5H-cyclopenta[d]pyrimidin-2-ylamino)-2-methoxybenzonitrile] | 100 to 1000
CNc1nc(Nc2ccc(C#N)c(OC)c2)nc2c1CCC2c1cccc(OC)c1 (racemic) [Example 7, 2-methoxy-4-(7-(3-methoxyphenyl)-4-(methylamino)-6,7-dihydro-5H-cyclopenta[d]pyrimidin-2-ylamino)benzonitrile] | 10 to 100
CNc1nc(Nc2ccc(C#N)c(OC)c2)nc2c1CC[C@H]2c1ccc(Cl)cc1F (single isomer, unassigned) [Example 6A] | 10 to 100
CNc1nc(Nc2ccc(C#N)c(OC)c2)nc2c1CCC2c1ccc(C(F)(F)F)cc1F (centres unmarked) [Example 8, 4-(7-(2-fluoro-4-(trifluoromethyl)phenyl)-4-(methylamino)-6,7-dihydro-5H-cyclopenta[d]pyrimidin-2-ylamino)-2-methoxybenzonitrile] | 10 to 100
CNc1nc(Nc2ccc(C#N)c(OC)c2)nc2c1CC[C@H]2c1ccccc1F (single isomer, unassigned) [Example 4A] | 10 to 100
CNc1nc(Nc2ccc(C#N)c(OC)c2)nc2c1CC[C@H]2c1ccccc1Cl (single isomer, unassigned) [Example 3A] | 1.5 to 9.9

same assay, conditions: 19 h incubation, read-out: Activity Rating (Aβ42 cellular IC50), given as number

Compound | IC50 [nM]
CNc1nc(Nc2ccc(C#N)c(OC)c2)nc2c1CC[C@H]2c1ccccc1OC (single isomer, unassigned) [Example 1A] | 13
CNc1nc(Nc2ccc(C#N)c(OC)c2)nc2c1CCC2c1ccc(OC(F)(F)F)cc1F (centres unmarked) [Example 9, 4-(7-(2-fluoro-4-(trifluoromethoxy)phenyl)-4-(methylamino)-6,7-dihydro-5H-cyclopenta[d]pyrimidin-2-ylamino)-2-methoxybenzonitrile] | 12
CNc1nc(Nc2ccc(C#N)c(OC)c2)nc2c1CC[C@H]2c1c(F)cc(F)cc1F (single isomer, unassigned) [Example 5A] | 11
CNc1nc(Nc2ccc(C#N)c(OC)c2)nc2c1CC[C@@]2(C)c1ccc(F)cc1 [Example 2A, (S)-4-(7-(4-fluorophenyl)-7-methyl-4-(methylamino)-6,7-dihydro-5H-cyclopenta[d]pyrimidin-2-ylamino)-2-methoxybenzonitrile] | 200
